# Test results taken from patent publication US11612604B2, “Methods of treating cancer with PLK4 inhibitors” (LUDWIG INSTITUTE FOR CANCER RESEARCH LTD, priority 2017, dated 2023).
# pIC50: −log10 of the molar value.
# Target: T1, PLK4 (Homo sapiens, UniProt O00444)
# T1 sequence (O00444 1-970): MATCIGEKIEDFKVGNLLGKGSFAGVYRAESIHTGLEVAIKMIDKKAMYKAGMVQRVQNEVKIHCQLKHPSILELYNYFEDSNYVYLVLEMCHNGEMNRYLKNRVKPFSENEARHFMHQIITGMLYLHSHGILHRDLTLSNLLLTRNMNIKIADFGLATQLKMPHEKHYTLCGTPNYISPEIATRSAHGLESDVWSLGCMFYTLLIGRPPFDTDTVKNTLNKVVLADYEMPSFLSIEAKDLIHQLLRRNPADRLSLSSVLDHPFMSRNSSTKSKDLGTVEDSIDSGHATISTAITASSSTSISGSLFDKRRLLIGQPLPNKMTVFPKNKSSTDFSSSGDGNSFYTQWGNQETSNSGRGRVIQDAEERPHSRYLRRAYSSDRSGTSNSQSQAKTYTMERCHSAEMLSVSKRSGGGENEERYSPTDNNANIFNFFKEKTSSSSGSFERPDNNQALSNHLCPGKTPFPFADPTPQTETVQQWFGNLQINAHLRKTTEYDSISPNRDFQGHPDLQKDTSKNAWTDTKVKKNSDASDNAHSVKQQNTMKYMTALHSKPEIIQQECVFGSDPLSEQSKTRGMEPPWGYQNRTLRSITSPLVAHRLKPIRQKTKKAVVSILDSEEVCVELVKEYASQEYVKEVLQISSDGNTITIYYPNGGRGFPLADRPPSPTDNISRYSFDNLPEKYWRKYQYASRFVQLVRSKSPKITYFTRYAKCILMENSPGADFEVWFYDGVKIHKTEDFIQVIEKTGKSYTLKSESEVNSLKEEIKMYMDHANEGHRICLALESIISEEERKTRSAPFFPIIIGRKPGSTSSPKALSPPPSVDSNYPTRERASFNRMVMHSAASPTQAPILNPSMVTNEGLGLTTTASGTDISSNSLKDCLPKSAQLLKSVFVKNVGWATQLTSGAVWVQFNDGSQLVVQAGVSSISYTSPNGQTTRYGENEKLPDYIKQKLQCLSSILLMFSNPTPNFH
# Test: Activity (IC50) of the Table 1 compounds as PLK4 inhibitors
# Format: biochemical
# Conditions: Table 1, IC50 class
row,pIC50,SMILES
1,> 7.00,COc1c(Nc2cc(C)[nH]n2)nc(Sc2ccc(NC(C)=O)cc2)nc1N1CCN(CCS(C)(=O)=O)CC1
2,> 7.00,COc1c(Nc2cc(C)[nH]n2)nc(Sc2ccc(S(=O)(=O)C(C)(C)c3cccc([N+](=O)[O-])c3F)cc2F)nc1N1CCNCC1
3,> 7.00,COc1c(Nc2cc(C)[nH]n2)nc(Sc2ccc(S(=O)(=O)Cc3cccc([N+](=O)[O-])c3F)cc2)nc1N1CCCCC1
4,> 7.00,CC(=O)Nc1ccc(Sc2nc(Nc3cc(C)[nH]n3)c(C)c(N3CCN(C(=O)CCN(C)C)CC3)n2)cc1
5,> 7.00,CC(=O)Nc1ccc(Sc2nc(Nc3cc(C)[nH]n3)c(C)c(N3CCN(C(=O)C(C)C)CC3)n2)cc1
6,> 7.00,COc1c(Nc2cc(C)[nH]n2)nc(Sc2ccc(S(=O)(=O)C3(c4cccc([N+](=O)[O-])c4F)CC3)cc2F)nc1N1CCC(CCN(C)C)CC1
7,> 7.00,COc1c(Nc2cc(C)[nH]n2)nc(Sc2ccc(NC(C)=O)cc2)nc1N1CC2CCC(C1)N2CCN1CCN(C)CC1
8,> 7.00,CCN(CC)c1nc(Sc2ccc(S(=O)(=O)CC)cc2)nc(Nc2cc(C)[nH]n2)c1OC
9,> 7.00,COc1c(Nc2cc(C)[nH]n2)nc(Sc2ccc(S(=O)(=O)Cc3ccccc3)cc2F)nc1N1CCN(CCN(C)C)CC1
10,> 7.00,COCCNc1nc(Sc2ccc(NC(C)=O)cc2)nc(Nc2cc(C)[nH]n2)c1C
11,> 7.00,COc1c(Nc2cc(C)[nH]n2)nc(Sc2ccc(NC(C)=O)cc2)nc1N1CCN(C(=N)NO)CC1
12,> 7.00,CC(=O)Nc1ccc(Sc2nc(Nc3cc(C)[nH]n3)c(C)c(N3CCC(CCN(C)C)CC3)n2)cc1
13,> 7.00,COc1c(Nc2cc(C)[nH]n2)nc(Sc2ccc(S(=O)(=O)Cc3ccccc3)cc2)nc1N1CCN(CCN(C)C)CC1
14,> 7.00,COc1c(Nc2ncc(C)s2)nc(Sc2ccc(S(C)(=O)=O)cc2)nc1N1CCN(CCN(C)C)CC1
15,> 7.00,CC(=O)Nc1ccc(Sc2nc(Nc3cc(C)[nH]n3)c(C)c(N3CCNCC3)n2)cc1
16,> 7.00,COc1c(Nc2cc(C)[nH]n2)nc(Sc2ccc(NC(C)=O)cc2)nc1N(C)C(C)C
17,> 7.00,COc1c(Nc2cc(C)[nH]n2)nc(Sc2ccc(S(=O)(=O)C(C)C)cc2)nc1N1CCN(CCN(C)C)CC1
18,> 7.00,CCOc1c(Nc2cc(C)[nH]n2)nc(Sc2ccc(NC(=O)C3CC3)cc2)nc1N(C)CC
19,> 7.00,COc1c(Nc2cc(C)[nH]n2)nc(Sc2ccc(S(=O)(=O)Cc3ccc(F)cc3F)cc2)nc1N1CCN(CCN(C)C)CC1
20,> 7.00,CC(=O)Nc1ccc(Sc2nc(Nc3cc(C)[nH]n3)c(C)c(N3CCOCC3)n2)cc1
21,> 7.00,CCN(CC)c1nc(Sc2ccc(NC(=O)C3CC3)cc2)nc(Nc2cc(C)[nH]n2)c1C
22,> 7.00,COc1c(Nc2cc(C)[nH]n2)nc(Sc2ccc(S(=O)(=O)Cc3ccccc3)cc2)nc1N1CCN(CCN2CCCCC2)CC1
23,> 7.00,CCNc1nc(Sc2ccc(NC(=O)C3CC3)cc2)nc(Nc2cc(C)[nH]n2)c1C

row,pIC50,SMILES
1,> 7.00,COCCN1CCN(c2nc(Sc3ccc(NC(C)=O)cc3)nc(Nc3cc(C)[nH]n3)c2OC)CC1
2,> 7.00,CCS(=O)(=O)c1ccc(Sc2nc(Nc3cc(C)[nH]n3)c(OC)c(N3CCC(CCN(C)C)CC3)n2)c(F)c1
3,> 7.00,COCC(=O)N1CCN(c2nc(Sc3ccc(N)cc3)nc(Nc3cc(C)[nH]n3)c2C)CC1
4,> 7.00,COc1c(Nc2cc(C)[nH]n2)nc(Sc2ccc(S(=O)(=O)C(C)(C)c3c(F)c(F)cc(F)c3F)cc2F)nc1N1CCC(OC(C)=O)CC1
5,> 7.00,COc1c(Nc2cc(C)[nH]n2)nc(Sc2ccc(S(=O)(=O)C(F)c3cc(F)cc([N+](=O)[O-])c3F)cc2F)nc1N1CCOCC1 (stereo not shown)
6,> 7.00,COc1c(Nc2cc(C)[nH]n2)nc(Sc2ccc(S(=O)(=O)Cc3cc(F)cc([N+](=O)[O-])c3)cc2)nc1N1CCN(CCN(C)C)CC1
7,> 7.00,CC(=O)Nc1ccc(Sc2nc(Nc3cc(C)[nH]n3)c(C)c(N3CCN(C(C)=O)CC3)n2)cc1
8,> 7.00,COc1c(Nc2cc(C)[nH]n2)nc(Sc2ccc(S(=O)(=O)C3(c4cccc([N+](=O)[O-])c4F)CC3)cc2F)nc1N1CCN(CCN(C)C)CC1
9,> 7.00,CC(=O)Nc1ccc(Sc2nc(Nc3cc(C)[nH]n3)c(C)c(N3CC=CCC3)n2)cc1
10,> 7.00,COc1c(Nc2cc(C)[nH]n2)nc(Sc2ccc(S(=O)(=O)C(C)(C)c3c(F)c(F)cc(F)c3F)cc2F)nc1N1CCC(CN)CC1
11,> 7.00,CC(=O)Nc1ccc(Sc2nc(Nc3cc(C)[nH]n3)c(C)c(N3CCCCCC3)n2)cc1
12,> 7.00,COc1c(Nc2cc(C)[nH]n2)nc(Sc2ccc(S(=O)(=O)Cc3ncco3)cc2)nc1N1CCN(CCN(C)C)CC1
13,> 7.00,COc1c(Nc2cc(C)[nH]n2)nc(Sc2ccc(NC(C)=O)cc2)nc1N1CCN(C(C)=O)CC1
14,> 7.00,CCN(CC)c1nc(Sc2ccc(NC(C)=O)cc2)nc(Nc2cc(C)[nH]n2)c1C
15,> 7.00,CCN(CC)CCN1CCN(c2nc(Sc3ccc(NC(C)=O)cc3)nc(Nc3cc(C)[nH]n3)c2OC)CC1
16,> 7.00,CNC(=O)Nc1ccc(Sc2nc(Nc3cc(C)[nH]n3)c(C)c(N3CCC(O)CC3)n2)cc1
17,> 7.00,COc1c(Nc2cc(C)[nH]n2)nc(Sc2ccc(S(=O)(=O)C3(c4cccc([N+](=O)[O-])c4F)CC3)cc2F)nc1N1CCC(N)CC1
18,> 7.00,COc1c(Nc2cc(C)[nH]n2)nc(Sc2ccc(S(=O)(=O)Cc3ccccc3C(=O)O)cc2)nc1N1CCN(CCN(C)C)CC1
19,> 7.00,COc1c(Nc2cc(C)[nH]n2)nc(Sc2ccc(S(=O)(=O)Cc3cccc([N+](=O)[O-])c3F)cc2F)nc1N1CCOC[C@@H]1C
20,> 7.00,COc1c(Nc2cc(C)[nH]n2)nc(Sc2ccc(NS(C)(=O)=O)cc2)nc1N1CCN(CCN(C)C)CC1
21,> 7.00,COc1c(Nc2cc(C)[nH]n2)nc(Sc2ccc(S(=O)(=O)Cc3ccccc3)cc2)nc1N1CCO[C@@H](C)C1
22,> 7.00,COc1c(Nc2cc(C)[nH]n2)nc(Sc2ccc(S(=O)(=O)C(C)(C)c3c(F)c(F)cc(Cl)c3F)cc2F)nc1N1CCOCC1
23,> 7.00,CC(=O)Nc1ccc(Sc2nc(Nc3cc(C)[nH]n3)c(C)c(N3CCC(F)CC3)n2)cc1

row,pIC50,SMILES
1,> 7.00,Cc1cc(Nc2nc(Sc3ccc(NC(=O)C4CC4)cc3)nc(N3CCN(C(C)C)CC3)c2C)n[nH]1
2,> 7.00,CNCC(=O)N1CCN(c2nc(Sc3ccc(NC(C)=O)cc3)nc(Nc3cc(C)[nH]n3)c2OC)CC1
3,> 7.00,CC(=O)Nc1ccc(Sc2nc3c(c(Nc4cc(C)[nH]n4)n2)C(C)CC3)cc1 (stereo not shown)
4,> 7.00,COc1c(Nc2cc(C)[nH]n2)nc(Sc2ccc(S(=O)(=O)C(C)(C)c3cccc([N+](=O)[O-])c3F)cc2F)nc1N1CCC(OC)C1 (stereo not shown)
5,> 7.00,COc1c(Nc2cc(C)[nH]n2)nc(Sc2ccc(S(=O)(=O)C(C)(C)c3cnccn3)cc2)nc1N1CCN(CCN(C)C)CC1
6,> 7.00,COc1c(Nc2cc(C)[nH]n2)nc(Sc2ccc(NC(C)=O)cc2)nc1N1CCN(C(C)C)CC1
7,> 7.00,COc1c(Nc2cc(C)[nH]n2)nc(Sc2ccc(S(=O)(=O)Cc3c(F)c(F)c(F)c(F)c3F)cc2F)nc1N1CCOCC1
8,> 7.00,COc1c(Nc2cc(C)[nH]n2)nc(Sc2ccc(S(=O)(=O)Cc3ccccc3)cc2)nc1N1CCN(C2CCN(Cc3ccccc3)CC2)CC1
9,> 7.00,COc1c(Nc2cc(C)[nH]n2)nc(Sc2ccc(S(=O)(=O)C(C)(C)c3cccc([N+](=O)[O-])c3F)cc2F)nc1N1CCC(N(C)C)CC1
10,> 7.00,COc1c(Nc2cc(C)[nH]n2)nc(Sc2ccc(NC(C)=O)cc2)nc1N1CCN(CCN(C)c2ccccc2)CC1
11,> 7.00,COc1c(Nc2cc(C)[nH]n2)nc(Sc2ccc(NC(C)=O)cc2)nc1N1CCC(CC(=O)O)CC1
12,> 7.00,COc1c(Nc2cc(C)[nH]n2)nc(Sc2ccc(S(=O)(=O)Cc3cc([N+](=O)[O-])ccc3F)cc2)nc1N1CCN(CCN(C)C)CC1
13,> 7.00,COc1c(Nc2cc(C)[nH]n2)nc(Sc2ccc(S(=O)(=O)Cc3cccc(C(N)=O)c3F)cc2F)nc1N1CCOCC1
14,> 7.00,COc1c(Nc2cc(C)[nH]n2)nc(Sc2ccc(S(=O)(=O)Cc3cccc([N+](=O)[O-])c3C#N)cc2)nc1N1CCN(CCN(C)C)CC1
15,> 7.00,COc1c(Nc2cc(C)[nH]n2)nc(Sc2ccc(S(=O)(=O)Cc3c(F)ccc(F)c3F)cc2F)nc1N1CCN(CCN(C)C)CC1
16,> 7.00,COc1c(Nc2cc(C)[nH]n2)nc(Sc2ccc(S(=O)(=O)Cc3cccc([N+](=O)[O-])c3F)cc2F)nc1N1CCOC[C@@H]1CO
17,> 7.00,CC(=O)Nc1ccc(Sc2nc(Nc3cc(C)[nH]n3)c3c(n2)C2(CC3)CCN(C(=O)C(C)(C)C)CC2)cc1
18,> 7.00,Cc1cc(Nc2nc(Sc3ccc(NC(=O)C4CCCC4)cc3)nc(N3CCCCC3)c2C)n[nH]1
19,> 7.00,CCN(C)c1nc(Sc2ccc(NC(=O)C3CC3)cc2)nc(Nc2cc(C)[nH]n2)c1C
20,> 7.00,CC(=O)Nc1ccc(Sc2nc(Nc3cc(C)[nH]n3)c(C)c(N3C4CCC3CC(O)C4)n2)cc1 (stereo not shown)
21,> 7.00,COc1c(Nc2cc(C)[nH]n2)nc(Sc2ccc(S(=O)(=O)Cc3cccc([N+](=O)[O-])c3)cc2)nc1N1CCN(CCN(C)C)CC1
